Test results as given in patent publication US5004756A, “Anti-cancer activity potentiator” (priority 1988, dated 1991).

Experiments:
[1] = system: V79/S; test: Colony formation (proliferation) inhibition, sensitive Chinese hamster cells (A-I Part 1); format: cell-based; details: Cricetulus griseus, 216 h; V79/S; 9 days; Table 1; read-out: IC50
Description: (§1) Sensitive cell line V79/S and ADM-resistant cell line V79/ADM of the Chinese hamster were used, and sensitive cell line PLC/S and cholchicin-resistant cell line PLC/Col, as human hepatoma cells.
(§2) The sensitive cell lines (400 cells) or the resistant cell lines (600 cells) were each incubated for 24 hours in 10 ml of Eagle's MEM medium containing 10% bovine serum. Each of the drugs indicated in Table 1 below was dissolved in ethanol, and 50 microliters of the resulting solution was added to the medium. The incubation was further carried out for 9 days. The concentration of the drug which inhibits 50% of the colony formation (proliferation) of the tumor cells was calculated.
(§3) V79/S and V79/ADM were tested by using all of the drugs described above, but PLC/S and PLC/Col were tested by using only the malate of formula (I), adriamycin and peplomycin.
(§4) The concentrations (micrograms/ml) required to inhibit 50% of the proliferation of the tumor cells, expressed by IC50, are shown in Table 1.

[2] = system: V79/ADM; test: Anti-cancer activity potentiating action, colony formation, V79/ADM resistant cells (A-III); format: cell-based, Chinese hamster; details: Cricetulus griseus; V79/ADM; alone; Table 6; read-out: IC50, anti-cancer agent alone
Description: (§5) The anti-cancer activity potentiating action of the malate of formula (I) was examined using Chinese hamster cells (sensitive cell line V79/S and ADM-resistant cell line V79/ADM), human hepatoma cells (sensitive cell line PLC/S and colchicin-resistant cell line PLC/Col) and mouse leukemia cells (sensitive cell line L5178Y/S) and aclarubicin-resistant cell line L5178Y/ACR).
(§6) Of these tumor cells, the sensitive cells (400 cells) and the resistant cells (600 cells) were each incubated in 10 ml of Eagle's MEM medium containing 10% bovine serum for 24 hours, and then each of the test drugs indicated in Table 6 was added. Thereafter, the incubation was carried out for 9 days. The concentration (IC50 : micrograms/ml) of the test drug required to inhibit 50% of the colony formation (proliferation) of the tumor cells was calculated.
(§7) (A) Chinese hamster V79 cells
(§8) As anti-cancer agents, there were used adriamycin (ADM), aclarubicin (ACR), actinomycin D (ACD), 5-fluorouracil (5-FU), cytarabin (Ara-C), cisplatin (CDDP), methotrexate (MTX), mitomycin C (MMC), nimustine (ACNU), mitoxantrone, etoposide ([…]), vincristine (VCR), bleomycin (BLM) and peplomycin (PEP). For the sensitive cells, the anti-cancer agents were used in combination with 10 micrograms/ml of the malate of formula (I), and for the resistant cells, the anti-cancer agents were used in combination with the malate of formula (I) 3 micrograms/ml, 5 micrograms/ml, and 10 micrograms/ ml.

[3] = system: PLC/Col; test: Anti-cancer activity potentiating action, colony formation, PLC/Col resistant cells (A-III); format: cell-based, human; details: Homo sapiens; PLC/Col; alone; Table 7; read-out: IC50, anti-cancer agent alone
Description: as §5, §6
(§9) As anti-cancer agents, adriamycin (ADM) and peplomycin (PEP) were used in combination with the malate of formula (I) (5 micrograms/ml).

[4] = system: PLC/Col; test: Colony formation (proliferation) inhibition, colchicin-resistant human hepatoma cells (A-I Part 1); format: cell-based; details: Homo sapiens, 216 h; PLC/Col; 9 days; Table 1; read-out: IC50
Description: as §1, §2, §3, §4

[5] = Acute toxicity test in mice, oral; format: in vivo, mouse; details: oral, 2,000 mg/kg
Description: Using mice, the malate of formula (I) obtained as above was tested for toxicity. […] Toxicity was neither noted.

[6] = system: PLC/S; test: Colony formation (proliferation) inhibition, sensitive human hepatoma cells (A-I Part 1); format: cell-based; details: Homo sapiens, 216 h; PLC/S; 9 days; Table 1; read-out: IC50
Description: as §1, §2, §3, §4

[7] = system: clinically isolated human cancer cells (lung adenocarcinoma, lung squamous cell carcinoma, osteosarcoma, ovarian carcinoma); test: Anti-tumor activity on clinically isolated human cancer cells, morphological changes (A-I Part 2); format: cell-based; details: 3 or 30 μg/ml (3 μg/ml for 3 examples, 30 μg/ml for 5)
[8] = system: PLC/S; test: Anti-cancer activity potentiating action, colony formation, PLC/S parent cells (A-III); format: cell-based, human; details: Homo sapiens; PLC/S; alone; Table 7; read-out: IC50, anti-cancer agent alone
Description: as §5, §6, §9

[9] = system: Meth-A; test: Tumor proliferation inhibiting activity, Meth-A (A-IV); format: in vivo, BALB/c rats; details: for Number of surviving animals: 16 days later; for T/C (tumor weight) / Tumor weight mean ± S.D.: day 16
Description: Female BALB/c rats (7 weeks old), 8 per group, were used. Tumor cells (Meth-A) induced by methyl cholanthrene were transplanted intraperitoneally to the rats, and then the malate of formula (I) was administered intraperitoneally to the rats. The proliferation inhibiting activity of the malate was examined by comparing the weight of the tumor cells with that of the tumor cells in the non-treated control group.
The dose of the malate of formula (I) was 1.25, 2.5, 5.0, and 10.0 mg/kg/day. Mitomycin C (MMC) was administered as another anti-cancer agent. The weight of the tumor cells was measured, and the proliferation inhibiting activity was determined.
The weight (g) of the tumor with respect to that of the tumor in the control group (T/C, %) after 16 days from the transplantation of the tumor cells, and the number of surviving rats after 16 days are shown in Table 8.

[10] = system: B16 melanoma cells; test: Life prolongation of BDF1 mice with B16 melanoma (A-II Part 1); format: in vivo, mouse (male BDF1); details: 5 mg/kg i.p., three times every 4 days
Description: Three to eight male BDF1 mice having a body weight of 20±3 g were used, and B16 melanoma cells were selected as tumor cells. The melanoma cells were homogenized, and the homogenate was transplanted subcutaneously to the mice in an amount of 0.5 ml/mouse. After 7 days, the malate of formula (I) in accordance with this invention and an anti-cancer agent, neocartinostatin (NCS), were intraperitoneally administered either singly or in combination three times every 4 days in a dose of 5 mg/kg and 0.45 mg/kg for each time. The life prolonging rate of the mice was determined by the treated group/non-treated control group (T/C %).

[11] = system: V79/S; test: Anti-cancer activity potentiating action, colony formation, V79/S parent cells (A-III); format: cell-based, Chinese hamster; details: Cricetulus griseus; V79/S; alone; Table 6; read-out: IC50, anti-cancer agent alone
Description: as §5, §6, §7, §8

[12] = system: V79/ADM; test: Colony formation (proliferation) inhibition, ADM-resistant Chinese hamster cells (A-I Part 1); format: cell-based; details: Cricetulus griseus, 216 h; V79/ADM; 9 days; Table 1; read-out: IC50
Description: as §1, §2, §3, §4

[13] = Particle charge / formation of lipid emulsion; format: physicochemical
Text: To secure fine particles of 1 micron or below in size which can actually be administered as a lipid emulsion, the particles should have a charge within the range of +20 mV to +50 mV.

[14] = 1.25 mg/kg/day i.p., days 1, 3, 5
[15] = 2.5 mg/kg/day i.p., days 1, 3, 5

COc1ccc(CNCCN(CC=C(C)CCC=C(C)CCC=C(C)CCC=C(C)CCC=C(C)CCC=C(C)CCC=C(C)CCC=C(C)CCC=C(C)C)Cc2ccc(OC)c(OC)c2)cc1OC [Compound (I), N-solanesyl-N,N'-bis(3,4-dimethoxybenzyl)ethylenediamine malate]
IC50 [1]: 11.5 µg/mL
IC50 [2]: 3 µg/mL
IC50 [3]: 1.7 µg/mL
IC50 [4]: 1.7 µg/mL
Acute toxicity, abnormality in mice [5]: no abnormality was found
IC50 [6]: 6.8 µg/mL
Efficacy ratio (rated significant by Fisher's test) [7]: 5/8
IC50 [8]: 6.8 µg/mL
Number of surviving animals [9, 14]: 8/8
T/C (tumor weight) [9, 14]: 75%
Tumor weight mean ± S.D. [9, 14]: 1.255 ± 0.533 g
Number of surviving animals [9, 15]: 8/8
T/C (tumor weight) [9, 15]: 79%
Tumor weight mean ± S.D. [9, 15]: 1.327 ± 0.350 g
Number of surviving animals ([9]; 5.0 mg/kg/day i.p., day 1): 8/8
T/C (tumor weight) ([9]; 5.0 mg/kg/day i.p., day 1): 83%
Tumor weight mean ± S.D. ([9]; 5.0 mg/kg/day i.p., day 1): 1.389 ± 0.644 g
Number of surviving animals ([9]; 10.0 mg/kg/day i.p., day 1): 8/8
T/C (tumor weight) ([9]; 10.0 mg/kg/day i.p., day 1): 65%
Tumor weight mean ± S.D. ([9]; 10.0 mg/kg/day i.p., day 1): 1.091 ± 0.659 g
T/C (life prolonging rate at M.S.T.) [10]: 165%
IC50 [11]: 11.5 µg/mL
IC50 [12]: 3 µg/mL

COc1ccc(CNCCN(CC=C(C)CCC=C(C)CCC=C(C)CCC=C(C)CCC=C(C)CCC=C(C)CCC=C(C)CCC=C(C)CCC=C(C)C)Cc2ccc(OC)c(OC)c2)cc1OC [compound (II), N-solanesyl-N,N'-bis(3,4-dimethoxybenzyl)ethylenediamine]
Formation of a lipid emulsion [13]: cannot be formed into a lipid emulsion
Particle charge within +20 mV to +50 mV / aggregation ([13]; lipid emulsion particles): particle aggregation occurs
